{
  "source": "the supplement of paper PMC10307832",
  "experiment_in_all_cases": "relative viability (nuclei count vs DMSO), 5 days (fraction); higher = more cells survive",
  "key": {"SK-MES-1": {"tested_on": "SK-MES-1", "summary_of_the_method": "(§1)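 Nuclei were stained with Hoechst during a one-step fixation (final 0.05% Triton X-100, 1% formaldehyde, 1 ug/ml Hoechst) carried out 5 days after dosing, then counted on 4× images. The cells, lung cancer lines in 1536-well plates, had been dosed by pin tool the day after seeding with one drug alone or a fixed anchor-drug dose plus five library-drug doses (not always all listed) in √10 steps. Relative viability is the nuclei count in treated wells divided by that in vehicle wells, and each value is the median of duplicate plates.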"}, "LOU-NH91": {"tested_on": "LOU-NH91", "summary_of_the_method": "as §1"}, "EMC-BAC-2": {"tested_on": "EMC-BAC-2", "summary_of_the_method": "as §1"}, "H3255": {"tested_on": "H3255", "summary_of_the_method": "as §1"}, "NCI-H1755": {"tested_on": "NCI-H1755", "summary_of_the_method": "as §1"}, "LK-2": {"tested_on": "LK-2", "summary_of_the_method": "as §1"}, "HCC-366": {"tested_on": "HCC-366", "summary_of_the_method": "as §1"}, "NCI-H596": {"tested_on": "NCI-H596", "summary_of_the_method": "as §1"}, "SW 900": {"tested_on": "SW 900", "summary_of_the_method": "as §1"}, "NCI-H2170": {"tested_on": "NCI-H2170", "summary_of_the_method": "as §1"}, "NCI-H1975": {"tested_on": "NCI-H1975", "summary_of_the_method": "as §1"}},
  "data": [
    {"smiles": "CC(=O)O[C@@]12CO[C@@H]1C[C@H](O)[C@@]1(C)C(=O)[C@H](O)C3=C(C)[C@@H](OC(=O)[C@H](O)[C@@H](NC(=O)OC(C)(C)C)c4ccccc4)C[C@@](O)([C@@H](OC(=O)c4ccccc4)[C@H]21)C3(C)C", "note": "[Docetaxel] + COc1cccc2cc(-c3nc([C@H]4CC[C@H](C(=O)O)CC4)n4ncnc(N)c34)[nH]c12 [OSI-027] (partner 0.5 µM)", "values": [
      {"measurement": "relative viability", "setting": "SK-MES-1; first compound 0.0002 µM", "result": 0.621},
      {"measurement": "relative viability", "setting": "SK-MES-1; first compound 0.000632 µM", "result": 0.506},
      {"measurement": "relative viability", "setting": "SK-MES-1; first compound 0.002 µM", "result": 0.276},
      {"measurement": "relative viability", "setting": "SK-MES-1; first compound 0.006325 µM", "result": 0.22},
      {"measurement": "relative viability", "setting": "SK-MES-1; first compound 0.02 µM", "result": 0.112},
      {"measurement": "relative viability", "setting": "LOU-NH91; first compound 0.0002 µM", "result": 0.698},
      {"measurement": "relative viability", "setting": "LOU-NH91; first compound 0.000632 µM", "result": 0.733},
      {"measurement": "relative viability", "setting": "LOU-NH91; first compound 0.002 µM", "result": 0.466},
      {"measurement": "relative viability", "setting": "LOU-NH91; first compound 0.006325 µM", "result": 0.344},
      {"measurement": "relative viability", "setting": "LOU-NH91; first compound 0.02 µM", "result": 0.3},
      {"measurement": "relative viability", "setting": "EMC-BAC-2; first compound 0.0002 µM", "result": 0.424},
      {"measurement": "relative viability", "setting": "EMC-BAC-2; first compound 0.000632 µM", "result": 0.327},
      {"measurement": "relative viability", "setting": "EMC-BAC-2; first compound 0.002 µM", "result": 0.257},
      {"measurement": "relative viability", "setting": "EMC-BAC-2; first compound 0.006325 µM", "result": 0.25},
      {"measurement": "relative viability", "setting": "EMC-BAC-2; first compound 0.02 µM", "result": 0.172},
      {"measurement": "relative viability", "setting": "H3255; first compound 0.0002 µM", "result": 0.66},
      {"measurement": "relative viability", "setting": "H3255; first compound 0.000632 µM", "result": 0.67},
      {"measurement": "relative viability", "setting": "H3255; first compound 0.002 µM", "result": 0.51},
      {"measurement": "relative viability", "setting": "H3255; first compound 0.006325 µM", "result": 0.369},
      {"measurement": "relative viability", "setting": "H3255; first compound 0.02 µM", "result": 0.277},
      {"measurement": "relative viability", "setting": "NCI-H1755; first compound 0.0002 µM", "result": 0.677},
      {"measurement": "relative viability", "setting": "NCI-H1755; first compound 0.000632 µM", "result": 0.554},
      {"measurement": "relative viability", "setting": "NCI-H1755; first compound 0.002 µM", "result": 0.402},
      {"measurement": "relative viability", "setting": "NCI-H1755; first compound 0.006325 µM", "result": 0.39},
      {"measurement": "relative viability", "setting": "NCI-H1755; first compound 0.02 µM", "result": 0.353},
      {"measurement": "relative viability", "setting": "LK-2; first compound 0.0002 µM", "result": 0.208},
      {"measurement": "relative viability", "setting": "LK-2; first compound 0.000632 µM", "result": 0.186},
      {"measurement": "relative viability", "setting": "LK-2; first compound 0.002 µM", "result": 0.159},
      {"measurement": "relative viability", "setting": "LK-2; first compound 0.006325 µM", "result": 0.171},
      {"measurement": "relative viability", "setting": "LK-2; first compound 0.02 µM", "result": 0.153},
      {"measurement": "relative viability", "setting": "HCC-366; first compound 0.0002 µM", "result": 0.917},
      {"measurement": "relative viability", "setting": "HCC-366; first compound 0.000632 µM", "result": 0.553},
      {"measurement": "relative viability", "setting": "HCC-366; first compound 0.002 µM", "result": 0.0467},
      {"measurement": "relative viability", "setting": "HCC-366; first compound 0.006325 µM", "result": 0.0385},
      {"measurement": "relative viability", "setting": "HCC-366; first compound 0.02 µM", "result": 0.0274},
      {"measurement": "relative viability", "setting": "NCI-H596; first compound 0.0002 µM", "result": 0.805},
      {"measurement": "relative viability", "setting": "NCI-H596; first compound 0.000632 µM", "result": 0.767},
      {"measurement": "relative viability", "setting": "NCI-H596; first compound 0.002 µM", "result": 0.505},
      {"measurement": "relative viability", "setting": "NCI-H596; first compound 0.006325 µM", "result": 0.372},
      {"measurement": "relative viability", "setting": "NCI-H596; first compound 0.02 µM", "result": 0.241},
      {"measurement": "relative viability", "setting": "SW 900; first compound 0.0002 µM", "result": 0.298},
      {"measurement": "relative viability", "setting": "SW 900; first compound 0.000632 µM", "result": 0.245},
      {"measurement": "relative viability", "setting": "SW 900; first compound 0.002 µM", "result": 0.177},
      {"measurement": "relative viability", "setting": "SW 900; first compound 0.006325 µM", "result": 0.18},
      {"measurement": "relative viability", "setting": "SW 900; first compound 0.02 µM", "result": 0.109},
      {"measurement": "relative viability", "setting": "NCI-H2170; first compound 0.0002 µM", "result": 0.734},
      {"measurement": "relative viability", "setting": "NCI-H2170; first compound 0.000632 µM", "result": 0.754},
      {"measurement": "relative viability", "setting": "NCI-H2170; first compound 0.002 µM", "result": 0.339},
      {"measurement": "relative viability", "setting": "NCI-H2170; first compound 0.006325 µM", "result": 0.256},
      {"measurement": "relative viability", "setting": "NCI-H1975; first compound 0.0002 µM", "result": 0.66},
      {"measurement": "relative viability", "setting": "NCI-H1975; first compound 0.000632 µM", "result": 0.479},
      {"measurement": "relative viability", "setting": "NCI-H1975; first compound 0.002 µM", "result": 0.217},
      {"measurement": "relative viability", "setting": "NCI-H1975; first compound 0.006325 µM", "result": 0.16},
      {"measurement": "relative viability", "setting": "NCI-H1975; first compound 0.02 µM", "result": 0.11}
    ]}
  ]
}
